Data from patent publication US5770565A, “Peptides for reducing or inhibiting bone resorption” (priority 1994, dated 1998).
Where a SMILES comes first, the peptide text is derived from it. Bridges are numbered along the chain shown (N, C = ends).

Assays:
rat osteoclasts = assay: rat osteoclast attachment assay compared with MG63 or NRK cell attachment; format: cell-based; conditions: FCS substrate, FIGS. 7 and 8
Method: To determine the effect of a peptide on the attachment of rat osteoclasts in vitro, 100 μl aliquots of the rat pup bone cell suspension described in Example II.B.2., above, were added in triplicate to 96 well "MAXISORP" plates coated with specific substrates or with FCS. Substrate coated plates were used to determine the ability of peptides to inhibit attachment or induce detachment of an osteoclast from a ligand such as vitronectin, fibronectin, osteopontin or collagen I (Collaborative Research), which are ligands present in bone. Substrates were added to 96 well plates (50 μl of a 5-10 μg/ml solution in sodium carbonate, pH 9.5) and incubated for 2 hr at 37° C. For FCS control wells, 100 μl 10% FCS was added. Wells were aspirated, then washed 2×with PBS and blocked with 1% bovine serum albumin in PBS for 2 hr at 37° C. Wells were aspirated and washed again 2× with PBS. Cells were seeded in duplicate at 4×10^4 cells/well. […]
Following incubation, the medium and nonadherent cells were removed by aspiration from each well. […] Adherent osteoclasts were counted by light microscopy. […]
MG63 and NRK cell lines were purchased from ATTC (Rockville Md.). […] Following staining, the stain was extracted with 20% acetic acid and the OD562 of the extracted stain was determined. […]
Selectivity of a peptide can be determined by comparing the results of FIGS. 7 and 8 (see, also FIG. 2).

[1] = tested on: αV β3 integrin, osteoclasts; assay: series of assays of Example II for potency and selectivity (summary, FIG. 2)
Source text: Peptides of the RGDNTic (SEQ ID NO: 56) pharmacophore group are characterized, in general, as having increased potency, whereas the peptides of the pharmacophore RGDDV (SEQ ID NO: 1) group generally have higher receptor selectivity. […] As used herein, the term "potency" or "potent" means that a peptide of the invention is active at a relatively low concentration in the assays described in Examples II and III. A potent peptide of the invention can be identified, for example, using the assays described in Examples II and III.
Selectivity can be due, for example, to the ability of a peptide of the invention to bind to αV β3 with greater affinity than it binds to other integrins. Thus, in addition to having selectivity, for example, for osteoclast binding to a matrix, a peptide of the invention also can display receptor selectivity and, therefore, more specifically alter receptor-mediated binding to a matrix. As used herein, the term "receptor selectivity" means that a peptide of the invention can bind to one receptor with greater affinity than it can bind to another receptor.

chick osteoclasts = assay: chick osteoclast / total cell detachment assay; format: cell-based; conditions: FIG. 5
Method: Peptides were evaluated for their ability to detach osteoclasts from a matrix consisting of serum-coated microtiter plates. In prescreening assays, 5 μM of the various RGD peptides was used to identify RGD peptides that released at least 60% of the osteoclasts from the matrix.
Osteoclasts were isolated from embryonic chicks using a modification of the methods of Boyde et al., Br. Dent. J. 156:216 (1984) and Chambers et al., Endocrinology 116:234 (1985), each of which is incorporated herein by reference. […]
The cells were incubated for 90 min at 37° C. in an atmosphere containing 10% CO2. […] Cell layers were stained for 5 min using 0.1% crystal violet and multinucleated osteoclasts were counted by light microscopy. […]
RGD peptides that are selective for releasing osteoclasts, but not the other cell types, from the matrix were identified by extracting the crystal violet stain from fixed cells and comparing the amount of staining in a control well (no peptide) with the amount of staining following incubation of the cells with an RGD peptide. Crystal violet was extracted using 20% acetic acid and the optical density of the resulting solution was measured in 96 well microtiter plates by spectrophotometry at 562 nm. […]

Swiss-Webster mice = assay: PTH-induced hypercalcemia assay; format: in vivo; conditions: single dose, infused 4 hr after PTH
Source text: Parathyroid hormone (PTH) activates osteoclasts, which are involved in bone resorption. Associated with the increased osteoclast activity is an increase in serum calcium. The PTH-induced hypercalcemia assay measures the level of serum calcium, which is an indication of bone resorption in a subject (Fischer et al., Endocrinology 132:1411-1413 (1993), which is incorporated herein by reference).
Swiss-Webster mice, which had been parathyroidectomized two weeks prior to beginning the assay, were obtained from Taconic Lab Animals and Services (Germantown N.Y.). Femoral vein catheters (PE-50 fused with PE10 polyethylene tubing; Becton Dickinson; Parsippany, N.J.) were installed in the mice, flushed and locked with heparinized saline (1:10), sutured to adjacent muscle and internalized within the inguinal space of the incision before closing the incision with wound clips. […]
The experiment was initiated by feeding the mice a calcium-deficient diet overnight, then injecting the mice the following morning with a bolus of 0.2 mg PTH/kg (hPTH 1-34; Bachem; Torrance Calif.), intravenously. […] Various doses of a peptide or vehicle were infused into an animal for 4 hr, then ionized serum calcium again was measured. […] Serum calcium measurements were expressed as the difference between the value 30 min before the PTH pulse and 4 hr after peptide infusion was started. […]

SMILES: CC(C)[C@@H]1NC(=O)[C@H](CC(=O)O)NC(=O)[C@H](CC(=O)O)NC(=O)CNC(=O)[C@H](CCCNC(=N)N)NC(=O)CC[C@@H](C(N)=O)NC1=O [peptide 386, RGDDVE-NH2] (RGDDVE-NH2; lactam N-6)
- selectivity: osteoclast attachment versus MG63 or NRK attachment (rat osteoclasts): selective
- potency and selectivity together (summary classification) [1]: both potent and selective
- receptor selectivity (summary classification) [1]: particularly receptor selective
- activity of peptides with minimally essential elements ([1]; FIG. 2): demonstrate activity
- selective detachment of osteoclasts as compared to other cell types (chick osteoclasts): selective detachment of osteoclasts
- serum calcium level (Swiss-Webster mice): relatively low level of serum calcium
